Usually Ki stands for the dissociation constant of the complex between target and ligand, obtained from inhibition or displacement.

Active and inactive are the calls of the source. The calls are words filed in the database; no cut-off is given here.

In ChEMBL document CHEMBL1138059, “Discovery of a nanomolar inhibitor of the human murine double minute 2 (MDM2)-p53 interaction through an integrated, virtual database screening strategy” (J Med Chem, 2006) one finds Activity and Ki data, which are given here for one molecule.

In assay [1] the test system is HCT-116. Kind of assay: Induction of p53 accumulation in HCT116 cells expressing wild type p53. The class given is functional, cell-based. Particulars: Homo sapiens.
The test system of assay [2] is HCT-116. As to the kind of experiment: Induction of p53 accumulation in isogenic HCT116 p53-/- cells. The class given is functional, cell-based. Particulars: Homo sapiens.
The target in assay [3] is E3 ubiquitin-protein ligase Mdm2 (Homo sapiens, UniProt Q00987).
E3 ubiquitin-protein ligase Mdm2, sequence (Q00987 whole entry): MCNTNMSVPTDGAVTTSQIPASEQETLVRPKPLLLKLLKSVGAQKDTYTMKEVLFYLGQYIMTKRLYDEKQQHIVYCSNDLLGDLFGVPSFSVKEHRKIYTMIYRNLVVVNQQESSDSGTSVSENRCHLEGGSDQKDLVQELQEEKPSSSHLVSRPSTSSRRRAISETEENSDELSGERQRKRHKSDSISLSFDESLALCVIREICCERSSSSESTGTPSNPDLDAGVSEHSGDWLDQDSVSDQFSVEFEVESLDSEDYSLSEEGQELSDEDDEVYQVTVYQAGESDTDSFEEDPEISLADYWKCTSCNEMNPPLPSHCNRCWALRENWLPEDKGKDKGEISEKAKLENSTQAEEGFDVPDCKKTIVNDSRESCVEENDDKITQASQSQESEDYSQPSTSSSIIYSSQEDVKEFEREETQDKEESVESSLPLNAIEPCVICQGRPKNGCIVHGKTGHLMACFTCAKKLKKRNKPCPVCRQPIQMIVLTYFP
The subject of assay [4] is HCT-116. Kind of assay: Induction of MDM2 accumulation in isogenic HCT116 p53-/- cells. The following applies: Homo sapiens. The class given is functional, cell-based.
Assay [5] has as its system HCT-116. As to the kind of experiment: Induction of MDM2 accumulation in HCT116 cells expressing wild type p53. The class given is functional, cell-based. Particulars: Homo sapiens.
The test system of assay [6] is HCT-116. Kind of assay: Induction of p21 accumulation in isogenic HCT116 p53-/- cells. It is filed as functional, cell-based. Particulars: Homo sapiens.
In assay [7] the test system is HCT-116. Kind of assay: Induction of p21 accumulation in HCT116 cells expressing wild type p53. The class given is functional, cell-based. The following applies: Homo sapiens.

As for `Cc1ccc2ccc(C(Nc3ccccc3)c3ccccc3)c(O)c2n1` (configuration not stated), the Activity result with HCT-116 [1], with HCT-116 [5] and in the assay with HCT-116 [7] was “Dose-dependent effect” each time. Also, the result in the assay with HCT-116 [2], in the assay with HCT-116 [4] and in the assay on HCT-116 [6] was inactive. In assay [3], affinity was put at a Ki of 120 nM.
